Test results taken from ChEMBL document CHEMBL1811903, “Protective role of 14-deoxy-11,12-didehydroandrographolide, a noncytotoxic analogue of andrographolide, in allergic airway inflammation” (J Nat Prod, 2011).

What was measured:
Format in all cases: cell-based
RBL-2H3 [1] = experiment: Cytotoxicity against rat RBL2H3 cells assessed as reduction in cell viability after 48 hrs by MTS assay; conditions: rbl-2h3, 48 h
A549 [2] = experiment: Cytotoxicity against human A549 cells assessed as reduction in cell viability at 3 to 120 uM by MTS assay; conditions: a549, 120 µM, TDE = time-dependent effect
[3] = Cytotoxicity against human BEAS2B cells assessed as reduction in cell viability after 48 hrs by MTS assay; conditions: beas-2b
RBL-2H3 [4] = experiment: Cytotoxicity against rat RBL2H3 cells assessed as reduction in cell viability at 3 to 120 uM by MTS assay; conditions: rbl-2h3, 120 µM, TDE = time-dependent effect
A549 [5] = experiment: Cytotoxicity against human A549 cells assessed as reduction in cell viability after 48 hrs by MTS assay; conditions: a549, 48 h
[6] = Cytotoxicity against human BEAS2B cells assessed as reduction in cell viability after 24 hrs by MTS assay; conditions: beas-2b
RBL-2H3 [7] = experiment: Cytotoxicity against rat RBL2H3 cells assessed as reduction in cell viability after 24 hrs by MTS assay; conditions: rbl-2h3, 24 h
[8] = Cytotoxicity against human BEAS2B cells assessed as reduction in cell viability at 3 to 120 uM by MTS assay; conditions: beas-2b, TDE = time-dependent effect
A549 [9] = experiment: Cytotoxicity against human A549 cells assessed as reduction in cell viability after 24 hrs by MTS assay; conditions: a549, 24 h

## C=C1CC[C@@H]2[C@](C)(CO)[C@H](O)CC[C@@]2(C)[C@@H]1C/C=C1/C(=O)OC[C@H]1O [ANDROGRAPHOLIDE]
RBL-2H3 [1]
  Activity: Dose-dependent effect
A549 [2]
  Activity: tde
[3]
  Activity: Dose-dependent effect
RBL-2H3 [4]
  Activity: tde
A549 [5]
  Activity: Dose-dependent effect
[6]
  Activity: Dose-dependent effect
RBL-2H3 [7]
  Activity: Dose-dependent effect
[8]
  Activity: tde
A549 [9]
  Activity: Dose-dependent effect
